Reference: patent US11540517B2, “Active compound combinations having insecticidal/acaricidal properties” (Bayer Aktiengesellschaft, priority 2017, dated 2023)

Assays:
Format in all cases: in vivo
Tetranychus urticae = Tetranychus urticae - spray test OP-resistant; conditions: mortality
Method: (§1) The expected efficacy of a given combination of two compounds is calculated as follows (see Colby, S. R., “Calculating Synergistic and antagonistic Responses of Herbicide Combinations”, Weeds 15, pp. 20-22, 1967): • If • X is the efficacy expressed in % mortality of the untreated control for test compound A at a concentration of m ppm respectively m g/ha, • Y is the efficacy expressed in % mortality of the untreated control for test compound B at a concentration of n ppm respectively n g/ha, • E is the efficacy expressed in % mortality of the untreated control using the mixture of A and B at m and n ppm respectively m and n g/ha, • then is
(§2) [formula] • If the observed insecticidal efficacy of the combination is higher than the one calculated as “E”, then the combination of the two compounds is more than additive, i.e. there is a synergistic effect.
Tetranyechus urticae—Spray Test OP-Resistant
Solvent: 78.0 parts by weight acetone
1.5 parts by weight dimethylformamide
Emulsifier: alkylarylpolyglycol ether
(§3) To produce a suitable preparation of active compound, 1 part by weight of active compound is mixed with the stated amount of solvents and is diluted with water, containing an emulsifier concentration of 1000 ppm, to the desired concentration. Further test concentrations are prepared by dilution with emulsifier containing water.
French bean (Phaseolus vulgaris) leaf disks infected with all instars of the two spotted spidermite (Tetranychus urticae), are sprayed with a preparation of the active ingredient of the desired concentration.
After the specified period of time, mortality in % is determined. 100% means all spider mites have been killed and 0% means none of the spider mites have been killed. The mortality values determined thus are recalculated using the Colby-formula (see above).

Phaedon cochleariae = Phaedon cochleariae - spray test; conditions: mortality
Method: as §1, §2
Phaedon cochleariae—Spray Test
(§4) Solvent: 7 parts by weight of dimethylformamide
(§5) Emulsifier: alkylaryl polyglycol ether
as §3, with “solvent” for “solvents”
After the specified period of time mortality in % is determined. 100% means all the beetle larvae have been killed and 0% means none of the beetle larvae have been killed. The mortality values determined thus are recalculated using the Colby-formula (see above).

Spodoptera frugiperda = Spodoptera frugiperda - spray test; conditions: mortality
Method: as §1, §2
Spodoptera frugiperda—Spray Test
as §4, §5
as §3, with “solvent” for “solvents”
Cotton leaves (Gossypium hirsutum) are treated by being sprayed with the preparation of the active compound of the desired concentration and are infested with caterpillars of the fall army worm (Spodoptera frugiperda).
After the specified period of time mortality in % is determined. 100% means all the caterpillars have been killed and 0% means none of the caterpillars have been killed. The mortality values determined thus are recalculated using the Colby-formula (see above).

Aphis gossypii = Aphis gossypii - spray test; conditions: 0.4 ppm, mortality
Method: as §1, §2
Aphis gossypii—Spray Test
as §4, §5
To produce a suitable preparation of active compound, 1 part by weight of active compound is mixed with the stated amount of solvent and is diluted with water, containing an emulsifier concentration of 1000 ppm, to the desired concentration. […]
After the specified period of time the mortality in % is determined. […] The mortality values determined thus are recalculated using the Colby-formula (see above).

Structure (SMILES): CNC(=N[N+](=O)[O-])NCC1CCOC1 (racemic) [Dinotefuran, (EZ)-(RS)-1-methyl-2-nitro-3-(tetrahydro-3-furylmethyl)guanidine]
- Efficacy in % after 6 days (Tetranychus urticae; 0.2 g ai/ha, after 6 days): 0%

Structure (SMILES): Cc1cc(F)c(N=C2SCC(=O)N2CC(F)(F)F)cc1[S+]([O-])CC(F)(F)F (centres unmarked) [Cpd of formula (I)]
- Efficacy in % after 1 day (Phaedon cochleariae; 1 ppm): 0%
- Efficacy in % after 2 days (Phaedon cochleariae; 1 ppm): 0%
- Efficacy in % after 3 days (Phaedon cochleariae; 1 ppm): 0%
- Efficacy in % after 3 days (Phaedon cochleariae; 2 ppm): 0%
- Efficacy in % after 1 day (Phaedon cochleariae; 4 ppm): 0%
- Efficacy in % after 2 days (Phaedon cochleariae; 4 ppm): 10%
- Efficacy in % after 3 days (Phaedon cochleariae; 4 ppm): 10%
- Efficacy in % after 3 days (Spodoptera frugiperda; 2.4 ppm): 0%
- Efficacy in % after 1 day (Spodoptera frugiperda; 4.8 ppm): 0%
- Efficacy in % after 2 days (Spodoptera frugiperda; 4.8 ppm): 0%
- Efficacy in % after 3 days (Spodoptera frugiperda; 4.8 ppm): 0%
- Efficacy in % after 6 days (Spodoptera frugiperda; 4.8 ppm): 0%
- Efficacy in % after 1 day (Spodoptera frugiperda; 9.6 ppm): 0%
- Efficacy in % after 2 days (Spodoptera frugiperda; 9.6 ppm): 0%
- Efficacy in % after 3 days (Spodoptera frugiperda; 9.6 ppm): 0%
- Efficacy in % after 6 days (Spodoptera frugiperda; 9.6 ppm): 0%
- Efficacy in % after 2 days (Tetranychus urticae; 0.1 g ai/ha): 0%

Structure (SMILES): CN1COCN(Cc2cnc(Cl)s2)C1=N[N+](=O)[O-] (mixture of isomers) [Thiametoxam, (EZ)-3-(2-chloro-1,3-thiazol-5-ylmethyl)-5-methyl-1,3,5-oxadiazinan-4-ylidene(nitro)amine]
- Efficacy in % after 2 days (Tetranychus urticae; 0.1 g ai/ha): 0%
- Efficacy in % after 2 days (Tetranychus urticae; 0.4 g ai/ha): 0%
- Efficacy in % after 2 days (Tetranychus urticae; 1.6 g ai/ha): 0%

Structure (SMILES): O=C1C=C(N(Cc2ccc(Cl)nc2)CC(F)F)CO1 [Flupyradifurone, 4-[(6-chloro-3-pyridylmethyl)(2,2-difluoroethyl)amino]furan-2(5H)-one]
- Efficacy in % after 2 days (Tetranychus urticae; 0.4 g ai/ha): 0%
- Efficacy in % after 2 days (Tetranychus urticae; 1.6 g ai/ha): 0%
- Efficacy in % after 2 days (Tetranychus urticae; 6.4 g ai/ha): 0%

Structure (SMILES): CN/C(=N\[N+](=O)[O-])NCc1cnc(Cl)s1 [Clothianidin, (E)-1-(2-chloro-1,3-thiazol-5-ylmethyl)-3-methyl-2-nitroguanidine]
- Efficacy in % after 1 day (Phaedon cochleariae; 2 ppm): 10%
- Efficacy in % after 2 days (Phaedon cochleariae; 2 ppm): 10%
- Efficacy in % after 3 days (Phaedon cochleariae; 2 ppm): 25%
- Efficacy in % after 3 days (Phaedon cochleariae; 4 ppm): 60%
- Efficacy in % after 1 day (Phaedon cochleariae; 8 ppm): 45%
- Efficacy in % after 2 days (Phaedon cochleariae; 8 ppm): 55%
- Efficacy in % after 3 days (Phaedon cochleariae; 8 ppm): 75%
- Efficacy in % after 3 days (Spodoptera frugiperda; 24 ppm): 40%
- Efficacy in % after 1 day (Spodoptera frugiperda; 48 ppm): 10%

Structure (SMILES): C/C(=N\C#N)N(C)Cc1ccc(Cl)nc1 [Acetamiprid, (E)-N^1-[(6-chloro-3-pyridyl)methyl]-N^2-cyano-N-methylacetamidine]
- Efficacy in % after 2 days (Spodoptera frugiperda; 48 ppm): 0%
- Efficacy in % after 3 days (Spodoptera frugiperda; 48 ppm): 0%
- Efficacy in % after 6 days (Spodoptera frugiperda; 48 ppm): 10%
- Efficacy in % after 1 day (Spodoptera frugiperda; 96 ppm): 10%
- Efficacy in % after 2 days (Spodoptera frugiperda; 96 ppm): 20%
- Efficacy in % after 3 days (Spodoptera frugiperda; 96 ppm): 40%
- Efficacy in % after 6 days (Spodoptera frugiperda; 96 ppm): 50%
- Efficacy in % after 2 days (Tetranychus urticae; 0.4 g ai/ha): 0%
- Efficacy in % after 2 days (Tetranychus urticae; 1.6 g ai/ha): 0%
- Efficacy in % after 2 days (Tetranychus urticae; 6.4 g ai/ha): 0%

Structure (SMILES): O=[N+]([O-])N=C1NCCN1Cc1cnc(Cl)s1 [Imidaclothiz, (EZ)-1-(2-chloro-1,3-thiazol-5-ylmethyl)-N-nitroimidazolidin-2-ylideneamine]
- Efficacy in % after 6 days (Aphis gossypii): 20%
- Efficacy in % after 2 days (Tetranychus urticae; 0.8 g ai/ha): 0%
- Efficacy in % after 2 days (Tetranychus urticae; 3.2 g ai/ha): 0%
- Efficacy in % after 2 days (Tetranychus urticae; 12.8 g ai/ha): 0%
